Where a SMILES comes first, the peptide text is derived from it. Bridges are numbered along the chain shown (N, C = ends). Roman numbers before positions name the chains, in order. Triazole bridges read from a SMILES are 1,4-linked. Where no end group is shown, it is not given here. Side-chain parts run from the residue outwards. [ ]: non-standard residue; d: D form. The star is where a group is joined. X2 = CN1C(=C/C=C/C=C/C2=[N+](CCCCCC(=O)*)c3ccc(S(=O)(=O)[O-])cc3C2(C)C)C(C)(C)c2cc(S(=O)(=O)O)ccc21; X1 = CN1C(=CC=CC=CC2=[N+](CCCCCC(=O)*)c3ccc(S(=O)(=O)[O-])cc3C2(C)C)C(C)(C)c2cc(S(=O)(=O)O)ccc21; Lys(N3) = [N-]=[N+]=NCCCC[C@H](N)C(=O)O; Cit = NC(=O)NCCC[C@H](N)C(=O)O; d(hCys) = N[C@H](CCS)C(=O)O; PEG3 = NCCOCCOCCOCCC(=O)O; Pra = C#CC[C@H](N)C(=O)O
Tests used:
[1] = system: HEK293_CMKLR1-eYFP cells; test: Resazurin based cell viability assay, peptides; conditions: 72 h incubation
Experimental: page 3: […] 15% FCS. Calcium flux assay Calcium flux assay was performed with cells expressing CMKLR1 and the chimeric G protein […]. The stably transfected COS-7_CMKLR1-eYFP_ […] were seeded at 25,000 cells per well into poly-ᴅ-lysine-coated 96-well plates (black μCLEAR, Greiner). The next day, cells were incubated with […] (Sigma), 20 mM 4-(2-hydroxyethyl)-1-piperazineethanesulfonic acid (HEPES, Sigma) in Hanks' Balanced […] This solution was replaced by assay buffer, and basal Ca2+ signal (λex = 485 nm, λem = 525 nm) was measured for 20 s with a Flexstation 3 plate reader (Molecular Devices). Peptide dilutions were added, and the Ca2+ response was measured for 40 s. The maximum signal over baseline was calculated and normalized to peptide 1 (N3-cC9). Non-linear regression was performed using Prism 10 (GraphPad). Experiments were performed in technical duplicates and at least twice. Cell viability assay HEK293 and HEK293_CMKLR1-eYFP cells were seeded at 15,000 cells per well into poly-ᴅ-lysine coated 96-well plates (black μCLEAR, Greiner). […] Cells were then washed and a resazurin-based cell viability assay was performed. […] (1:1) + 15% FBS without phenol red was added to the cells. […] using the fluorescence of resorufin (λex = 550 nm, λem = 595 nm). Data was normalized to cells incubated without peptide (100%) and cells treated with ethanol for 3 min before resazurin addition (0%). Experiments were performed in technical triplicates and at least twice. Fluorescence microscopy Peptide internalization was evaluated by fluorescence microscopy. […] the cells and incubated for 6 h. […] All shown microscopy images are representative of at least two independent experiments. […] Resazurin based cell viability assay of HEK293 and HEK293_CMKLR1-eYFP cells after 72 h incubation with the p53/MDM2 inhibitor Nutlin-3a. […] 100 50 2Cy 3Cy 4Cy 0 -8 -7 -6 -5 -4 […]], log Figure S4. Resazurin based cell viability assay of HEK293_CMKLR1-eYFP cells after 72 h incubation with the PMIγ peptides discussed in this work. Mean ± SEM from two independent experiments performed in triplicates. 15 […]

[2] = molecular target: T1, NanoLuc-MDM2 in HEK293_CMKLR1-eYFP cells (Homo sapiens, UniProt Q00987); test: Intracellular Cy5-PMIγ/NanoLuc-MDM2 BRET, cells with CMKLR1; format: cell-based; conditions: for displacement from MDM2 by 10 μM nutlin-3a (kinetic BRET): 72 h internalization; for BRET between NanoLuc-MDM2 and Cy5-labeled peptide: CMKLR1-expressing cells, 1 or 10 μM; for receptor-specific BRET under uptake competition: coincubation with 30 μM unlabeled peptide 1
T1 construct: host or cells: HEK293 and HEK293_CMKLR1-eYFP
Experimental: 4 Intracellular bioluminescence resonance energy transfer (BRET) between NanoLuc-MDM2 and Cy5-labeled PMIγ in living cells. (A) Peptides were incubated on HEK293 and HEK293_CMKLR1-eYFP cells for 72 h before BRET was measured. To evaluate the receptor-specific effect, ΔBRET was calculated by subtracting netBRET of cells without CMKLR from netBRET from cells with CMKLR1. Mean ± SEM from three independent experiments performed in duplicate. […] (B) Calculated ΔBRET values after different incubation times of peptides on the cells. (C, D) Same as panels (A) and (B), but peptide uptake was competed by coincubation with 30 μM peptide 1 (N3-cC9). (E, F) Displacement of PMIγ peptides from MDM2 after 72 h internalization in a kinetic BRET measurement. After 3 min, 10 μM of the small molecule MDM2 antagonist Nutlin-3a was added and the loss of NanoLuc-MDM2/Cy5-PMIγ BRET was observed. Mean (bold line) ± SEM (dotted lines) from three independent experiments is shown. […]
Intracellular Cy5-PMIγ/NanoLuc-MDM2 bioluminescence resonance energy transfer […]
HEK293 and stably transfected HEK293_CMKLR1-eYFP cells were seeded at 15,000 cells per well into poly-ᴅ-lysine coated 96-well plates (white Nunc MicroWell, Thermo). The next day, cells in each well were transfected with 0.1 µg Transfection Carrier DNA (Promega) and 0.001 µg NanoLuc-MDM2 fusion vector (Promega) using Lipofectamine 3000 (Invitrogen) according to manufactures instructions. Cells were incubated overnight, washed, allowed to recover for 4 h, washed again and dilutions of the Cy5-labeled peptides were added to the cells and incubated for 24,48 or 72 h. For uptake competition experiments, 30 µM of the unlabeled peptide 1 (N3-cC9) were additionally added to each well. After the incubation, excess peptide was washed away thoroughly, and cells were incubated for 4 h before the cell culture medium was replaced by 50 µl Fluorobrite DMEM with Nano-Glo Live Cell Reagent (Promega). After 10 min incubation, luminescence was measured in a Spark multimode plate reader (Tecan), and BRET ratio was calculated by […]
dividing the Cy5-signal (670±30 nm) by the NanoLuc signal (450±20 nm). netBRET was calculated by subtracting the BRET ratio from cells which were incubated without peptide. To calculate the CMKLR1-specific effect, ΔBRET was calculated by subtracting the netBRET value obtained in cells without CMKLR1 from netBRET obtained in cells with CMKLR1. After the initial readout, a kinetic BRET displacement was performed with the same cells. For this, luminescence was measured every 22 s. After 3 min, 10 µM of the small molecule MDM2 antagonist Nutlin-3a (Sigma) was added to the cells and BRET was measured for another 7 min. Experiments were performed in technical duplicates and three independent times. Non-linear regression and statistical analysis were performed using Prism 10 (GraphPad).
Analogous to the intracellular Cy5-PMIγ/NanoLuc-MDM2 BRET experiment, HEK293 and HEK293_CMKLR1-eYFP cells were seeded and transfected with 0.09 µg Transfection Carrier DNA, 0.01 µg […]
were then incubated with dilutions of unlabeled PMIγ -peptides for 72 h or with Nutlin-3a for 24 h. During the last 30 min of the incubation, HaloTag TMR Ligand (Promega) was added to the cells to fluorescently label the p53-HaloTag fusion proteins in the cells. Cells were then washed thoroughly, incubated for 4 h in full cell culture medium without peptides, and the cell culture medium was then replaced by 50 µl Fluorobrite DMEM with Nano-Glo Live Cell Reagent. After 10 min incubation, luminescence was measured, and BRET ratio was calculated by dividing the TMR-signal (600±50 nm) by the NanoLuc signal (450±20 nm). netBRET was calculated and normalized to cells without peptide (100%) and cells which were not label ed with HaloTag TMR Ligand (0%). Experiments were performed in technical duplicates and at least twice. Non-linear regression and statistical analysis were performed using Prism 10 (GraphPad).

T1 sequence (Q00987 whole entry): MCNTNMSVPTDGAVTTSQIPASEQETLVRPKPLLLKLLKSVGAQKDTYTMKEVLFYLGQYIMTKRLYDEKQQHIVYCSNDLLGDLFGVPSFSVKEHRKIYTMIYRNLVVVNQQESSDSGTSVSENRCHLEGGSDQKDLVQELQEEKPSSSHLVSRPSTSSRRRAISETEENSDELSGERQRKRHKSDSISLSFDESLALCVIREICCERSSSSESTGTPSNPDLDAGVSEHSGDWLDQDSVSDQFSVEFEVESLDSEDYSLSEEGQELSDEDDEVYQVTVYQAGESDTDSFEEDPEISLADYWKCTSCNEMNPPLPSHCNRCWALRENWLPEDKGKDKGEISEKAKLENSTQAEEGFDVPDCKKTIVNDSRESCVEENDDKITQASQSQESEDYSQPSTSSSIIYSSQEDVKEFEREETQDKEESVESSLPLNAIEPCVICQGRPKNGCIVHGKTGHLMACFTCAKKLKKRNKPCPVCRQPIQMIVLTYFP

Compound	cytotoxicity [1]	displacement from MDM2 by 10 μM nutlin-3a (kinetic BRET) ([2]; 1 μM extracellular peptide)	BRET between NanoLuc-MDM2 and Cy5-labeled peptide ([2]; 72 h)	receptor-specific BRET under uptake competition [2]	loss of BRET after 10 μM nutlin-3a, compared with 2Cy ([2]; 1 μM extracellular peptide, 72 h)	ΔBRET (netBRET with CMKLR1 minus without) ([2]; 24, 48 and 72 h)
CC(=O)N[C@@H](CCCCn1cc(C[C@H](NC(=O)CCOCCOCCOCCNC(=O)[C@H](CCCNC(N)=O)NC(=O)[C@@H](NC(=O)[C@H](CCC(=O)O)NC(=O)CNC(=O)CNC(=O)[C@@H](CCCNC(=N)N)NC(=O)[C@@H](CC(C)C)NC(=O)[C@@H](CC(C)C)NC(=O)[C@@H](C)NC(=O)[C@@H](CCC(=O)O)NC(=O)[C@@H](Cc2ccccc2)NC(=O)[C@@H](C)NC(=O)[C@@H](CC(C)C)NC(=O)[C@H]2CCCN2C(=O)[C@@H](Cc2c[nH]c3ccccc23)NC(=O)[C@@H](Cc2c[nH]c3ccccc23)NC(=O)[C@@H](CC(=O)O)NC(=O)CCOCCOCCOCCNC(=O)CCCCC[N+]2=C(/C=C/C=C/C=C3N(C)c4ccc(S(=O)(=O)O)cc4C3(C)C)C(C)(C)c3cc(S(=O)(=O)[O-])ccc32)C(C)C)C(N)=O)nn1)C(=O)N[C@@H](Cc1ccc(O)cc1)C(=O)N[C@@H](Cc1ccccc1)C(=O)N1CCC[C@H]1C(=O)N[C@@H]1CCSSC[C@@H](C(=O)O)NC(=O)[C@H](Cc2ccccc2)NC(=O)[C@H](C)NC(=O)[C@H](Cc2ccccc2)NC(=O)[C@H](CCC(N)=O)NC1=O [2Cy] (I: {X2-PEG3}-[dD][dW][dW][dP][dL][dA][dF][dE][dA][dL][dL][dR]GGEV[Cit][PEG3][Pra]-NH2 / II: Ac-[Lys(N3)]YFP[d(hCys)]QFAFC-OH; triazole I:19-II:1; disulfide II:5-II:10)	no signs of cytotoxicity	seen only in CMKLR1-expressing cells	significantly elevated BRET	almost no receptor-specific BRET was detected		
I: GSVSHHHHHHGGHHHH[PEG3][dK]([PEG3-X1])[dD][dW][dW][dP][dL][dA][dF][dE][dA][dL][dL][dR]GEV[Cit][PEG3][Pra]-NH2 / II: Ac-[Lys(N3)]YFP[d(hCys)]QFAFC-OH (triazole I:36-II:1; disulfide II:5-II:10) [3Cy]	tolerated slightly worse at concentrations above 1 μM	seen only in CMKLR1-expressing cells	significantly elevated BRET	almost no receptor-specific BRET was detected	larger loss of BRET	slightly higher signal compared to 2Cy

From publication PMC12814185, “Receptor-Mediated Shuttling of a D‑Amino Acid Peptide Achieves High Nanomolar Cytosolic Concentrations” (Journal of the American Chemical Society, 2025)
